Experimental data taken from US7700624B2, “3-aminocyclopentanecrboxamides as modulators of chemokine receptors” (Incyte Corporation, priority 2005, dated 2010).

Molecular target: T1, CCR2 (Homo sapiens, UniProt P41597)
T1 construct: Peripheral Blood Mononuclear Cells (PBMCs) prepared from normal human whole blood via density gradient centrifugation; endogenous in cells; host or cells: human PBMCs from normal whole blood
T1 sequence (P41597 1-360 isoform P41597-2): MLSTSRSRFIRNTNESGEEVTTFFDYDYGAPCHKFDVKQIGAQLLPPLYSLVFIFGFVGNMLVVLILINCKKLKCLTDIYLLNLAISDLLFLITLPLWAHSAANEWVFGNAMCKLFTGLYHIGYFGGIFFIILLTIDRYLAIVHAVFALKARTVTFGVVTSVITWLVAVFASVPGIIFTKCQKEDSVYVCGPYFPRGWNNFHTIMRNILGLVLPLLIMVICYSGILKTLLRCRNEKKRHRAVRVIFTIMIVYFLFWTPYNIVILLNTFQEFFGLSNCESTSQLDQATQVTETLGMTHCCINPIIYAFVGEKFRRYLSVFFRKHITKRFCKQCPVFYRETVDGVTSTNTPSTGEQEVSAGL
Assay: CCR2 binding assay: 125I-labeled MCP-1 binding to human PBMCs
Conditions: inhibition of specific binding of 0.1 to 0.2 nM 125I-labeled MCP-1 to human PBMCs, 30 min at room temperature
Description: The CCR2 antagonist activity of compounds of the invention can be reported as the inhibitor concentration required for 50% inhibition (IC50 values) of specific binding in receptor binding assays using ^125I-labeled MCP-1, as ligand, and Peripheral Blood Mononuclear Cells (PBMCs) prepared from normal human whole blood via density gradient centrifugation. Specific binding is preferably defined as the total binding (e.g., total cpm on filters) minus the non-specific binding. Non-specific binding is defined as the amount of cpm still detected in the presence of excess unlabeled competitor (e.g., MCP-1).
Human PBMCs are used to test compounds of the invention in a binding assay. For example, 200,000 to 500,000 cells are incubated with 0.1 to 0.2 nM ^125I-labeled MCP-1, with or without unlabeled competitor (10 nM MCP-1) or various concentrations of compounds to be tested. ^125I-labeled MCP-1, are prepared by suitable methods or purchased from commercial vendors (Perkin Elmer, Boston Mass.). The binding reactions are performed in 50 to 250 μL of a binding buffer consisting of […] pH 7.2, and 0.1% BSA (bovine serum albumin), for 30 min at room temperature. The binding reactions are terminated by harvesting the membranes by rapid filtration through glass fiber filters (Perkin Elmer) which is presoaked in 0.3% polyethyleneimine or Phosphate Buffered Saline (PBS). The filters were rinsed with approximately 600 μL of binding buffer containing 0.5 M NaCl or PBS, then dried, and the amount of bound radioactivity is determined by counting on a Gamma Counter (Perkin Elmer).

COc1ccc(CN[C@@H]2CC[C@@](C(=O)N3CCN(c4cc(C(F)(F)F)ccn4)CC3)(C(C)C)C2)c(OC)c1 [Example 10, (1R,3S)-N-(24-dimethoxybenzyl)-3-isopropyl-3-({4-[4-(trifluoromethyl)pyridin-2-yl]piperazin-1-yl}carbonyl)cyclopentanamine]
IC50: 519 nM

CC(C)[C@]1(C(=O)N2CCN(c3cc(C(F)(F)F)ccn3)CC2)CC[C@@H](NCc2ccc3c(c2)OCC(=O)N3)C1 [Example 30, 6-({[(1R,3S)-3-isopropyl-3-({4-[4-(trifluoromethyl)pyridin-2-yl]piperazin-1-yl}carbonyl)cyclopentyl]amino}methyl)-2H-14-benzoxazin-3(4H)-one]
IC50: 364 nM

CC(C)[C@]1(C(=O)N2CCN(c3cc(C(F)(F)F)ccn3)CC2)CC[C@@H](NC2CCC(O)(c3ccc(-c4ncccn4)cn3)CC2)C1 (stereo partly drawn) [Example 1, 4-{[(1R3S)-3-isopropyl-3-({4-[4-(trifluoromethyl)pyridin-2-yl]piperazin-1-yl}carbonyl)cyclopentyl]amino}-1-(5-pyrimidin-2-ylpyridin-2-yl)cyclohexanol]
IC50: 19.8 nM
